Experimental data published in US4011332A, “Hemorrhagic-lesion producing and anticoagulant-containing compositions and their use” (priority 1974, dated 1977).
Read-outs that look alike come from different tables or passages of the source.

How the values were obtained:
Sprague-Dawley rats [1] = test: LD5 determination / hemorrhagic stomach and gut lesions after single oral dose; conditions: for LD5: single oral dose, Sprague-Dawley rats, empty stomach; for LD5 (criterion for rat strain to be used): rat strain advisable for the test
Procedure: A selection of compounds from those suitable for component (b) is, however, made in a simpler manner by determining the LD5 (in mg/kg). […] Determination of the cause of death is effected, e.g., by autopsy of the dead animals.
The rats were kept in groups of 5 and four animals in plastic cages of the type M III. The room temperature was maintained at approximately 23° C. For determining the lethal doses, as mentioned in the following description, the rats were fed on empty stomachs. The animals received the noted compounds [for example, component (a) or (b) or the composition containing both] in a volume of liquid amounting to 5 ml per kg of body weight of the rat. The administration of the liquid was carried out once using a feeding tube introduced into the oesophagus. The doses of the active substances [component (a), component (b) or the composition] were varied. Component (b) was administered as a sodium salt in aqueous solution, and the number of animals which died within 10 days after administration was noted.
The lethal doses (LD5, LD50 and LD100 in mg/kg) were determined by simple linear regression, while the limits of trust were determined by the method of Litchfield and Wilcoxon.
Thereafter autopsy the dead animals to determine the cause of death.

Sprague-Dawley rats [2] = test: animal or person; assay type: in vivo; conditions: for LD100 (interpolated): component (b) with 2 mg/kg 4-hydroxy-2-oxo-3-(1-phenylpropyl)-2H-chromene, single oral dose, 10 days
Source text: Note the number of animals which die within 10 days of the respective administrations.

Sprague-Dawley rats [3] = conditions: for LD50 oral, in combination with component (b) 2 mg/kg: with 2 mg/kg 1-phenyl-3,5-di-(2-thienyl)-4-pyrazole acetic acid; for LD50 oral, in combination with component (b) 1 mg/kg: with 1 mg/kg 1-phenyl-3,5-di-(2-thienyl)-4-pyrazole acetic acid
Procedure: *Ingestion volume: 5 ml/kg, period of observation: 10 days

[4] = test system: wild rats (Rattus norvegicus and Rattus ratus); test: LD100 of combinations in wild rats, single oral dose (Example 3); assay type: in vivo; conditions: full stomachs, 10 days
[5] = test system: female Sprague-Dawley rats; test: Rodenticidal bait test, mortality in 10 days (Example 12, Table IV); assay type: in vivo; conditions: one day, 10 days observation
Source text: Following the rules for the examination of rodenticides against rats and mice (edited by Bundesgeshundheitsamt, Institut fuer Wasser-, Boden- und Lufthygiene, Biologische Bundesanstalt fur Land- und Forstwirtschaft, Staatliches Medizinaluntersuchungsamt, Abt. fuer hygienische Schadlingsbekampfung), female Sprague-Dawley rats weighing about 200 grams, kept in single boxes, were provided with the rodenticidal active substances* alone or in combination (expressed in mg/kg) in 4 grams of bait per rat, i.e. 20 g of bait/kg of body weight. These soft consistent, i.e. not crumbly, baits were prepared from Semmelmehl (i.e. powder prepared by grinding dry white bread) and some water. The rats on an empty stomach were provided with these baits as the only food during one day, tap water was ad libitum.
* 4-hydroxy-2-oxo-3-(3-oxo-1-phenyl-butyl)-2H-chromene and 1,5-diphenyl-3-(p-chlorophenyl)-4-pyrazole acetic acid
Thereafter, the animals were provided with usual standard diet Atromine R for the remaining duration of the test.
The mortality rate was determined during a test period of 10 days.

[6] = alone, 5 ml/kg, observation 10 days

Structure (SMILES) | LD5 (Sprague-Dawley rats [1]) | LD100 (interpolated) (Sprague-Dawley rats [2]) | also measured
CC(C(=O)O)c1ccc(C2CCCCC2)c(Cl)c1 (single isomer, unassigned) [N, d(+)-3-chloro-4-cyclohexyl-α-methyl-phenylacetic acid] | < 15 mg/kg of body weight | 5 to 10 mg/kg | –
O=C1c2ccccc2C(=O)C1c1ccccc1 [2-phenylindandione-(1,3)] | – | – | LD50 oral, alone (Sprague-Dawley rats [3]; [6]): above 100 mg/kg of body weight; LD50 oral, in combination with component (b) 2 mg/kg (Sprague-Dawley rats [3]; 5 ml/kg, observation 10 days): not less than 50 mg/kg of body weight
O=C(O)Cc1c(-c2cccs2)nn(-c2ccccc2)c1-c1cccs1 [A, 1-phenyl-3,5-di-(2-thienyl)-4-pyrazole acetic acid] | < 5 mg/kg of body weight | ~ 2.0 mg/kg | LD100, component (b) ([4]; component (a) 0 mg/kg): 7 mg/kg of rat body weight; LD100, component (b) in combination ([4]; with component (a) 2 mg/kg): 3 mg/kg of rat body weight; LD100, component (b) in combination ([4]; with component (a) 3 mg/kg): 2 mg/kg of rat body weight; LD100, component (b) in combination ([4]; with component (a) 4 mg/kg): 1.5 mg/kg of rat body weight
O=C(O)Cc1c(-c2ccc(Cl)cc2)nn(-c2ccccc2)c1-c1ccccc1 [B, 1,5-diphenyl-3-(p-chlorophenyl)-4-pyrazole acetic acid] | < 5 mg/kg of body weight | 1.5 mg/kg | –
O=C(O)Cc1c(-c2ccccc2)nn(-c2ccccc2)c1-c1ccccc1 [C, 1,3,5-triphenyl-4-pyrazole acetic acid] | < 5 mg/kg of body weight | 3.0 mg/kg | –
CCC(c1ccccc1)c1c(O)c2ccccc2oc1=O (stereo not drawn) [Component 1.1, 4-hydroxy-2-oxo-3-(1-phenylpropyl)-2H-chromene, reference compound] | – | – | LD50 oral, alone (Sprague-Dawley rats [3]; [6]): 3.0 mg/kg of body weight; LD50 oral, in combination with component (b) 1 mg/kg (Sprague-Dawley rats [3]; 5 ml/kg, observation 10 days): 1.7 mg/kg of body weight; LD50 oral, in combination with component (b) 2 mg/kg (Sprague-Dawley rats [3]; 5 ml/kg, observation 10 days): 0.55 mg/kg of body weight; LD100 ([4]; Rattus norvegicus, 240 h, component (b) 0 mg/kg): 45 mg/kg; LD100, component (a) in combination ([4]; with component (b) 1.5 mg/kg): 4 mg/kg of rat body weight; LD100, component (a) in combination ([4]; with component (b) 2 mg/kg): 3 mg/kg of rat body weight; LD100, component (a) in combination ([4]; with component (b) 3 mg/kg): 2 mg/kg of rat body weight; LD100 (Sprague-Dawley rats [2]; Rattus norvegicus, po, 240 h, anticoagulant alone, Sprague-Dawley rats): 17 mg/kg
CC(=O)CC(c1ccccc1)c1c(O)c2ccccc2oc1=O (stereo not drawn) [Component 1.2, 4-hydroxy-2-oxo-3-(3-oxo-1-phenylbutyl)-2H-chromene] | – | – | LD50 oral, alone (Sprague-Dawley rats [3]; rat, in vivo, po, 240 h): 7.0 mg/kg of body weight; LD50 oral, in combination with component (b) 1 mg/kg (Sprague-Dawley rats [3]; 5 ml/kg, observation 10 days): 4 mg/kg of body weight; LD50 oral, in combination with component (b) 2 mg/kg (Sprague-Dawley rats [3]; 5 ml/kg, observation 10 days): 0.4 mg/kg of body weight; % of Animals which Died ([5]; Component 1.2 100 mg/kg in bait): 80%; % of Animals which Died ([5]; Component 1.2 200 mg/kg in bait): 80%
CC(C)(C)C(=O)C1C(=O)c2ccccc2C1=O [Component 1.4, 2-pivaloyl-1,3-indandione] | – | – | LD50 oral, alone (Sprague-Dawley rats [3]; [6]): above 5 mg/kg of body weight; LD50 oral, in combination with component (b) 2 mg/kg (Sprague-Dawley rats [3]; 5 ml/kg, observation 10 days): above 1 mg/kg of body weight
CC(=O)CC(c1ccc([N+](=O)[O-])cc1)c1c(O)c2ccccc2oc1=O (stereo not drawn) [Component 1.6, 4-hydroxy-2-oxo-3-[3-oxo-1-(4-nitrophenyl)butyl]-2H-chromene] | – | – | LD50 oral, alone (Sprague-Dawley rats [3]; [6]): above 100 mg/kg of body weight; LD50 oral, in combination with component (b) 2 mg/kg (Sprague-Dawley rats [3]; 5 ml/kg, observation 10 days): 1.3 mg/kg of body weight
O=C(O)Cc1c(-c2cccs2)nn(-c2ccc(Cl)cc2)c1-c1cccs1 [D, 1-(p-chlorophenyl)-3,5-di-(2-thienyl)-4-pyrazole acetic acid] | < 5 mg/kg of body weight | 5.0 mg/kg | –
COc1ccc2c(c1)c(CC(=O)O)c(C)n2C(=O)c1ccc(Cl)cc1 [E, reference compound] | < 15 mg/kg of body weight | 7.5 mg/kg | LD5 (criterion for rat strain to be used) (Sprague-Dawley rats [1]): approximately 7 mg/kg of body weight
O=C(O)Cc1c(C2CCCCC2)nn(-c2ccccc2)c1-c1ccccc1 [F, 3-cyclohexyl-1,5-diphenyl-4-pyrazole acetic acid] | < 15 mg/kg of body weight | 7.5 mg/kg | –
COc1ccc(-c2c(CC(=O)O)c(-c3ccccc3)nn2-c2ccccc2)cc1 [G, 1,3-diphenyl-5-(p-methoxyphenyl)-4-pyrazole acetic acid] | < 15 mg/kg of body weight | ~ 10.0 mg/kg | –
COc1ccc(-n2nc(-c3ccccc3)c(CC(=O)O)c2-c2ccccc2)cc1 [H, 3,5-diphenyl-1-(p-methoxyphenyl)-4-pyrazole acetic acid] | < 15 mg/kg of body weight | ~ 10.00 mg/kg | –
O=C(O)c1ccccc1O [I, salicylic acid, reference compound] | above 100 mg/kg of body weight | – | –
CC(=O)Oc1ccccc1C(=O)O [K, acetylsalicylic acid, reference compound] | above 100 mg/kg of body weight | – | –
CN1C(C(=O)Nc2nccs2)=C(O)c2ccccc2S1(=O)=O [L, n-(2-thiazolyl)-4-hydroxy-2-methyl-2H-1,2-benzothiazine-3-carboxamide-1,1-dioxide] | < 50 mg/kg of body weight | ≤ 20.00 mg/kg | –
O=C(O)Cc1c(-c2cccs2)nn(-c2ccccc2Cl)c1-c1cccs1 [M, 1(o-chlorophenyl)-3,5-(2-thienyl)-4-pyrazole acetic acid] | < 15 mg/kg of body weight | 10 to 50 mg/kg | –
O=C(O)Cc1c(-c2ccco2)nn(-c2ccccc2)c1-c1ccco1 [O, 1-phenyl-3,5-di-(2-furyl)-4-pyrazole acetic acid] | < 50 mg/kg of body weight | ~ 50 mg/kg | –
CN1C(=O)C(C(=O)Nc2ccc(F)cc2F)c2ccccc21 (stereo not drawn) [P, 1-methyl-2',4'-difluoroxindole-3-carboxanilide] | < 50 mg/kg of body weight | – | –
CN1C(O)=C(C(=O)Nc2ccc(Br)cc2)c2ccccc2S1(=O)=O [Q, n-(4-bromophenyl)-3-hydroxy-2-methyl-2H-1,2-benzothiazine-4-carboxamide-1,1-dioxide] | < 50 mg/kg of body weight | – | –
CN1C(O)=C(C(=O)Nc2ccc([N+](=O)[O-])cc2)c2ccccc2S1(=O)=O [R, n-(4-nitrophenyl)-3-hydroxy-2-methyl-2H-1,2-benzothiazine-4-carboxamide-1,1-dioxide] | < 50 mg/kg of body weight | – | –
CCCCC1C(=O)N(c2ccccc2)N(c2ccccc2)C1=O [phenylbutazone, reference compound] | – | – | LD5 (criterion for rat strain to be used) (Sprague-Dawley rats [1]): 600 mg/kg of body weight
